The values below come from a melting point compilation (Tetko et al.; mined from patent text by program, amines drawn as free bases though some values may be those of a salt).

Usually melting point stands for the temperature, or range, at which the solid turns liquid.

Regarding `O=C1C=CC(OC2CCCCC2)N1S(=O)(=O)c1ccccc1` (centres undefined), the melting point is 104 to 106 °C. As for `CCCSc1cc(C(=O)O)cc(S(N)(=O)=O)c1-c1ccccc1`, the figure is 85 to 87 °C; as for `Cc1nc(Sc2ccc(C(=O)O)cn2)sc1CC(=O)O`, 226 to 228 °C. `CC(=O)NC1=NN(c2ccccc2)CC1C` (centres undefined): the melting point fell in the range of 149 to 150 °C.

`CCOC(=O)Cn1c(-c2ccccc2Cl)nc2cccnc21` gave a melting point of 64 to 66 °C. As for `C=C(C)c1cccc2c(C(=O)O)cccc12`, the figure is 138 to 140 °C; as for `COc1cc(F)ccc1C(=O)Nc1cc(-c2c(-c3ccc(F)c(C)c3)nc3cccnn23)ccn1`, 251 to 252 °C. As for `COCNC(=S)n1nc(Oc2c(Cl)cc(C(F)(F)F)cc2Cl)cc1C`, the melting point is 95 to 96 °C.

`CCc1noc(-c2ccc(OCCC3CCN(c4ccc(C)nn4)CC3)cc2)n1` showed a melting point of 122 °C.

In turn, `O=c1[nH]c2cc(F)c(NCCCC3CCCOC3)cc2o1` (centres undefined) displayed a melting point of 144 to 145 °C. With `CCc1ccc(C(=O)O)c([N+](=O)[O-])c1` the figure was 111 °C.

In turn, `CS(=O)(=O)c1ccc(-c2cc(O)sc2-c2ccc(F)cc2)cc1` displayed a melting point of 60 °C. With `Cc1cc(-c2nncc3c(C(C)(C)C)c(O)nn23)no1` the figure was 275 to 278 °C; with `Cc1cnc2c(S(=O)(=O)N[C@@H](CCCc3cn(C(c4ccccc4)(c4ccccc4)c4ccccc4)cn3)C(=O)O)cccc2c1`, 170 °C; with `Clc1ccc(C(=C2SCCCS2)C2CC2)cc1`, 91 to 95 °C. With `O=C(Nc1ccc(Oc2ccccc2)cc1)N1CCN(c2ncnc3ccc(Br)cc23)CC1` the figure was 169 to 170 °C; with `CCCS(=O)(=O)c1ccc(NS(=O)(=O)c2cccs2)c2[nH]c(C(=O)O)cc12`, 247 to 248 °C; with `CNC(=C[N+](=O)[O-])N(C)Cc1ccc(Cl)nc1`, 103 to 104 °C. With `CCOC(=O)c1cc(CCc2cc(OC)ccc2OC)ccc1NC(C)=O` the figure was 93 °C; with `CCN[C@@H]1CN(C(=O)c2nn(C)c3ccccc23)C[C@@H]1C` (relative stereo), 62 to 64 °C. As for `COC(=O)c1ccc(/C=C(\C)c2ccc3c(c2)OC(C)(C)O3)cc1`, the melting point fell in the range of 72 to 74 °C. `COC(=O)c1c(Cl)cc(Cl)cc1NC(=O)CSc1ccc(NC(=S)Nc2cccc(Cl)c2)cc1` registered a melting point of 148 to 150 °C. As for `N#Cc1cncc(-c2cccc(OCc3ccccc3)c2)c1Nc1ccc2[nH]ccc2c1`, the melting point lay in the range of 165 to 166 °C.

Turning to `CC(C)(C)n1cc(C#N)c2cc([N+](=O)[O-])cnc21`, the melting point was in the range of 216 to 218 °C. As for `COC(=O)C1CC(Oc2ccc(N)cc2)CN1C(=O)C1(C)CCc2c(C)c(O)c(C)c(C)c2O1` (centres undefined), the figure is 110 to 112 °C.

For the molecule `CCCc1nc2c(C)ccc(OCc3ccccc3)c2[nH]1`, the melting point is 192 to 194 °C. As for `CC(C)n1c(-c2ccccc2)nc(-c2ccc(F)cc2)c1C=O`, the figure is 130 to 134 °C; as for `CCc1c(CCNC(=O)CCCC(=O)NCCc2ccc(OC)c(OC)c2CC)ccc(OC)c1OC`, 171 to 173 °C. With `CC1(C)NC(=O)N(CC(CCS(=O)(=O)c2ccc(-c3ccc(C(F)(F)F)cc3)cc2)N(O)C=O)C1=O` (centres undefined) the figure was 125 °C.

Molecule `O=C(Nc1ccc2cn[nH]c2c1)C(=O)N1CCC(Cc2ccc(F)cc2)CC1` displayed a melting point of 162 to 164 °C. For `CN(C)c1ccc2cc(-c3ccnc(N)c3C#N)ccc2c1`, the melting point was in the range of 256 to 257 °C.

For the molecule `O=C(O)C(=O)N1CN(C(=O)c2c(F)cccc2F)C(=O)N(c2ccc(Oc3ccc(C(F)(F)F)cc3Cl)cc2F)C1`, the melting point was 67 to 72 °C.

In turn, `O=C(NCC1CCN(CC2(C(=O)O)CCOCC2)CC1)N1C(=O)C2(CCCC2)c2ccc(F)cc21` gave a melting point of 129 °C. With `COc1ccc2[nH]c(C(N)=O)cc2c1` the figure was 204 to 205 °C; with `C#CCOc1cc(OCC#C)ncn1`, 74 °C; with `CN1C(=O)C(c2cccc(Br)c2)(c2ccc(OC(F)F)c(C3CC3)c2)N=C1N` (centres undefined), 85 to 87 °C. As for `O=S(=O)(CF)c1ccc(C2=C(c3ccc(F)cc3)CCC2)cc1`, the figure is 123 to 124 °C. On to `CSc1ncc(OCc2cccnc2)c(=O)[nH]1`, for which the melting point fell in the range of 186 to 187 °C. As for `COc1ccc2oc(Cc3cc(C(F)(F)F)cc(C(F)(F)F)c3)c(CC#N)c2c1`, the figure is 112 °C; as for `CN1Cc2c(C(=O)OC(C)(C)C)ncn2-c2ccccc2C1=O`, 216 to 217 °C.

`CC1Cc2c(N=C=O)ccc(Cl)c2O1` (centres undefined) yielded a melting point of 169 to 171 °C.

`Cc1nnc(-c2ccc3occ(C(=O)O)c3c2)o1` returned a melting point of 252 to 253 °C. Molecule `O=C1Cc2cccc(Oc3cccc(Cl)c3)c2O1` displayed a melting point of 105 to 106 °C. With `O=C(O)CCCCCCC1C(=O)CCC1=O` the figure was 131 to 141 °C; with `O=C(O)CCCC=C(c1ccccc1)c1ccccc1`, 111 to 112 °C.

For the molecule `CCOC(=O)C1=C(C)NC(CSC(=N)N)=C(C(=O)OCC)C1c1cccc([N+](=O)[O-])c1` (single isomer, unassigned; (+)), the melting point is 124 to 126 °C. `C=CCNC(=O)N1CC(OCc2ccc(Cl)c(Cl)c2)C1` registered a melting point of 88 to 89 °C. As to `CC1(C)C=Cc2c(O)cc(-c3cc4ccc(O)cc4o3)cc2O1`, the melting point is > 250 °C. With `CC(CC(=O)NCc1ccccc1)C(N)=O` (centres undefined) the figure was 127 to 129 °C; with `CN1CCN(c2cc(Cl)cc3c2c(=O)n(Cc2ccccc2Cl)c(=O)n3Cc2ccccc2)CC1`, 87 to 92 °C; with `CC(C)(C)N1C(=O)c2cc([N+](=O)[O-])c(Cl)nc2C1=O`, 100 to 104 °C.

In turn, `O=C(O)CNCCn1nc(-c2c(-c3ccccc3)nn3ccccc23)ccc1=O` gave a melting point of 230 to 232 °C. Take `N#CC(c1ccccc1)c1cc(Oc2cc(Cl)cc(Cl)c2)c2c(=O)c3ccccc3sc2c1` (centres undefined): the melting point fell in the range of 145 to 155 °C.

Regarding `CCOc1ccc(SCCSc2ccc(OCC)cc2)cc1`, the melting point was 90 °C. With `CC(=O)N1CCCC(=O)c2c(Cl)cccc2CCC1=O` the figure was 115 to 116 °C; with `CC(=O)OCc1ccc2sc(S(N)(=O)=O)cc2c1`, 113 to 115 °C. As for `CN(Cc1ccccc1)Cc1nc(-c2ncn3c2CN(C)C(=O)c2cc(F)ccc2-3)no1`, the figure is 161 to 162 °C. Molecule `CC(C)(C(=O)Nc1cc(Cl)cc(Cl)c1)N1COC(C#N)=C(c2ccccc2)C1=O` came in with a melting point of 132 to 135 °C. As to `CC(C)N(C1CCCCC1)S(=O)(=O)N[C@@H](Cc1ccc(Oc2nccc3cnccc23)cc1)C(=O)O`, the melting point was determined as 138 °C. With `COc1ccc(C(CN2CCN(Cc3ccccc3)C2=O)NC(C)=O)cc1OC` (centres undefined) the figure was 156 °C. With `CC1OC(O)CC(O)C1O` (centres undefined) the figure was 102 to 105 °C; with `c1ccc2nc(COc3ccc(NC4CCCC4)cc3)ccc2c1`, 88 °C. With `CCn1c(=O)n(Cc2ccccc2)c(=O)c2c(N3CCN(C)CC3)cc(Cl)cc21` the figure was 68 to 75 °C; with `O=c1cc2c(n[nH]1)-c1ccccc1C2`, 295 °C. The molecule `Cc1cc(C)nc(NC(=O)Cc2ccsc2)c1` registered a melting point of 123 to 124 °C.

Regarding `CCOCc1nc2c(N)nc(C)c(C)c2n1CC(C)C`, the melting point lay in the range of 110 to 112 °C. With `Cc1cccc(C(=O)Nc2nc(C(Cl)(Cl)Cl)ns2)c1` the figure was 142 °C; with `Cc1cc(O)c(SC23CC4CC(CC(C4)C2)C3)c(=O)o1`, 176 °C. As for `Cc1ccc(C(C#N)Nc2ccc(S(C)(=O)=O)cc2)cc1` (centres undefined), the figure is 158 to 160 °C; as for `O=C(c1ccccc1)c1c(F)ccc([N+](=O)[O-])c1F`, 75.8 to 77.2 °C; as for `CN(C)C=Nc1c(Cl)cc(N=Cc2ccccc2F)cc1Cl`, 79 to 81 °C. As for `Cc1cc(CNC(=O)c2cc(-n3cnn(Cc4ccc(F)cc4)c3=O)n[nH]2)no1`, the melting point was in the range of 276 to 277 °C. As for `O=C(NCc1c[nH]c(=S)n1[C@H]1CCc2c(F)cc(F)cc2C1)c1cccnc1`, the figure is 218 to 221 °C; as for `Cc1cccc2c1nc(-c1cccc(Cl)c1[N+](=O)[O-])n2CC(O)C(C)(C)C` (centres undefined), 236 to 237 °C; as for `CC(C)c1cccc(C(C)C)c1NC(=O)CNC(c1ccc(F)cc1)c1ccc(F)cc1`, 150 to 151 °C. In the case of `CC1CCCCC1OC(=O)c1ncn2c1C1CCCN1C(=O)c1c(Cl)cccc1-2` (centres undefined), the melting point was 213 to 215 °C. With `COc1ccc(C=O)cc1NC(=O)OCC1c2ccccc2-c2ccccc21`, the melting point lay in the range of 139 to 142 °C. Regarding `COc1nc(C)nc(NC(=N)SC)n1`, the melting point is 112 °C. `CCCc1c(OC(C(=O)OCC)c2ccc(Cl)c(Cl)c2)ccc(C(C)=O)c1O` (centres undefined) registered a melting point of 77 to 79 °C. `Cc1noc(C)c1-c1cn(Cc2ccccc2)c(=O)c2ncccc12`: the melting point was in the range of 168 to 170 °C. With `CC1(C)CCC(C)(C)c2cc3sc(-c4ccc(C(=O)O)cc4)cc3cc21` the figure was 291 to 292 °C.

On to `CCCCCCOc1ccc(-c2nccc(-c3cccc(F)c3F)n2)cn1`, for which the melting point was 110 °C. In the case of `OCc1ccc2c(Cl)cccc2c1`, the melting point was in the range of 72 to 75 °C.

`COc1cc(-n2cnc(C)c2C)cc2oc(=O)c(C)c(C)c12` had a melting point of 196 to 198 °C.

The molecule `C#CCOc1cc(-n2c(=O)nc(N(C)C)n(C)c2=O)c(F)cc1Cl` returned a melting point of 61 to 65 °C. With `O=c1nc(N(Cc2nnn[nH]2)c2ccc(Cl)cc2)sc2ncccc12`, the melting point was in the range of 258 to 259 °C. As for `CCOC(=O)c1c(O)c2ccc(Cl)cc2c(=O)n1C`, the figure is 109 to 110 °C; as for `O=C(O)CCC1=C2C(=CC(Cl)=CC2(F)Cl)NC1C(=O)O` (centres undefined), 292 to 294 °C; as for `COCc1c(OCc2ccccc2)ccc2c1CCCC2=O`, 55 to 56 °C.
